Laboratory results as given in patent US4526890A, “3,6,7,8-Substituted-s-triazolo[4,3-b]pyridazines as bronchodilators” (The Dow Chemical Company, priority 1981, dated 1985).
Structures can show the parent of a compound that is named as a salt.

Assays:
[1] = Audiogenic convulsive side effects (sound challenge: tonic convulsions and fatalities); conditions: mouse, ip
Procedure: (§1) The interaction of sound with the convulsive threshold of drugs is a known phenomenon which can be used to evaluate such side effects. […] In a procedure for pharmacological evaluation, the lowering of the convulsive threshold, or the lowering of the LD50, by sound can be studied in mice.
(§2) In the test operations, mice are administered a test compound by intraperitoneal injection at various dosages, and the number of mice showing tonic convulsions and the number of fatalities occurring within 30 minutes is recorded.
The sound exposure is carried out by placing the mice in a sound insulated cage with a bell which emits 120 decibels of sound, and activating the bell for two minutes. The number of tonic convulsions and fatalities are then recorded to determine the ED50 and LD50 in the presence of the sound challenge.

[2] = 30 minute LD50 (acute toxicity without sound); conditions: mouse, in vivo, ip
Procedure: as §1, §2

[3] = tested on: histamine-induced bronchoconstriction; experiment: Bronchodilator activity in the Konzett-Rossler guinea pig preparation (histamine-induced bronchoconstriction); assay type: in vivo; design: key to Histamine Blockade: % blockade = 100 − (post-dose response / mean of 3 prior) × 100; conditions: for percent blockade of histamine / percent of aminophylline activity: 3 mg/kg intravenously; for percent blockade of histamine: 2 minutes prior to histamine; for percent of aminophylline activity: aminophylline 10 mg/kg for comparison, histamine agonist; for Histamine Blockade: table 7, intravenous, 3 mg/kg except as otherwise indicated, aminophylline 10 mg/kg
Procedure: Bronchodilator activity of representative triazolopyridazine compounds of the invention is examined in the Konzett-Rossler quinea pig preparation according to accepted procedures. See Knozett and Rossler; Arch. f. Exp. Path. u. Pharmakol. […] Int. Pharmacodyn. […] In this procedure an anesthetized guinea pig is artificially respired with a fixed volume of air. The volume of air is selected to slightly exceed the capacity of the guinea pig's lungs, and the excess air or "overflow" is measured. Test compounds are evaluated by administering a test compound intravenously 2 minutes prior to administration of an agonist compound (histamine, serotonin or acetylcholine) following 3 previous agonist doses resulting in relatively uniform (±10 percent) bronchoconstriction. […] This is calculated by dividing the "overflow" agonist response measured after administration of the test compound by the average of the 3 preceding agonist responses, multiplying by 100 and subtracting this value from 100 percent.

[4] = tested on: histamine aerosol; experiment: Histamine aerosol exposure (collapse time); assay type: in vivo, guinea pigs; conditions: challenged two hours after intraperitoneal injection, collapse time > mean + two SD of controls; for ED50: Cavia porcellus, ip, 2 h
Procedure: In another procedure, test compounds were administered to guinea pigs by intraperitoneal injection and the guinea pigs were challenged two hours later by exposure to a histamine aerosol. Untreated animals collapse when exposed to the histamine aerosol. […] The ED50 's of representative compounds are set out in the following table.

Compound	LD50 ([1]; in vivo)	LD50 at 0.5 h [2]	Histamine Blockade [3]	TD50 [1]	other results
Cc1c(N2CCCC2)nn2cnnc2c1C [7,8-Dimethyl-6-pyrrolidino-s-triazolo[4,3-b]pyridazine]	277 mg/kg	277 mg/kg	62		TD50 ([1]; in vivo): 277 mg/kg; percent blockade of histamine [3]: 65%; percent of aminophylline activity [3]: 67%
CC(C)c1nnc2c3c(c(N4CCCC4C)nn12)CCCC3 (stereo not shown) [Example 55]					ED50 [4]: ~7.9 mg/kg
Cc1nnc2c3c(c(N4CCCN(C)CC4)nn12)CCCC3 [44 (dihydrochloride)]					ED50 [4]: 23.8 mg/kg
CCc1nnc2c3c(c(N4CCCN(C)CC4)nn12)CCCC3 [Example 46]					ED50 (histamine aerosol exposure) ([4]; 120 min): < 5 mg/kg i.p.
Cc1nnc2c3c(c(N4CCOCC4)nn12)C1CCC3C1 (stereo not shown) [Example 6, 7,8,9,10-tetrahydro-3-methyl-6-(4-morpholinyl)-7,10-methano(1,2,4)triazolo[3,4-a]phthalazine]	74 mg/kg	86 mg/kg	76	61 mg/kg	
c1nnc2c3c(c(N4CCCC4)nn12)CCCC3 [Example 24, 6-(1-pyrrolidinyl)-7,8,9,10-tetrahydro(1,2,4)triazolo[3,4-a]phthalazine]	170 mg/kg	191 mg/kg	86	150 mg/kg	percent blockade of histamine [3]: 100%; percent of aminophylline activity [3]: 105%
Cc1c(N2CCCCC2)nn2c(C)nnc2c1C [R7 Methyl; R3 CH3; R8 CH3; R6 Piperidino, 6-Piperidino-3,7,8-trimethyl-s-triazolo[4,3-b]pyridazine]	141 mg/kg	141 mg/kg	30		TD50 ([1]; in vivo): 141 mg/kg
Cc1nnc2c3c(c(N4CCCC4)nn12)C1CCC3C1 (stereo not shown) [Example 10]	85 mg/kg	85 mg/kg	95	85 mg/kg	
CN1CCN(c2nn3cnnc3c3c2C2CCC3CC2)CC1 [Example 21]	147 mg/kg	147 mg/kg	82	113 mg/kg	
c1nnc2c3c(c(N4CCCC4)nn12)C1CCC3CC1 [Example 15]	117 mg/kg	136 mg/kg	66	117 mg/kg	
CNc1nn2c(C)nnc2c2c1CCCC2 [Example 38]					ED50 [4]: 2.1 mg/kg
CC(C)c1nnc2c3c(c(N4CCCC4)nn12)CCCC3 [Example 56]					ED50 [4]: ~5.1 mg/kg
c1nnc2c3c(c(N4CCCCC4)nn12)C1CCC3C1 (stereo not shown) [Example 8]	98 mg/kg	108 mg/kg	84	90 mg/kg	
Cc1nnc2c3c(c(N4CCCC4)nn12)C1CCC3CC1 [Example 18]	141 mg/kg	141 mg/kg	55		TD50 ([1]; in vivo): 141 mg/kg
c1nnc2c3c(c(N4CCOCC4)nn12)CCCC3 [6-Morpholino-7,8-tetramethylene-s-triazolo[4,3-b]pyridazine]					selectivity ratio ([1]; in vivo): 3.8; percent blockade of histamine [3]: 75%; percent of aminophylline activity [3]: 113%
Cc1nnc2c3c(c(N4CCN(C)CC4)nn12)C1CCC3CC1 [Example 23]	147 mg/kg	147 mg/kg	90		TD50 ([1]; in vivo): 147 mg/kg

Compound	LD50 ([1]; in vivo)	LD50 at 0.5 h [2]	Histamine Blockade [3]	TD50 [1]	other results
c1nnc2c3c(c(N4CCCC4)nn12)C1CCC3C1 (stereo not shown) [Example 7]	100 mg/kg	136 mg/kg	87	93 mg/kg	
CN1CCN(c2nn3cnnc3c3c2CCCC3)CC1 [Example 27, 6-(4-methyl-1-piperazinyl)-7,8-tetramethylene(1,2,4)triazolo[4,3-b]pyridazine]	134 mg/kg	147 mg/kg	91	134 mg/kg	
c1nnc2c3c(c(N4CCOCC4)nn12)C1CCC3CC1 [Example 17]	85 mg/kg	118 mg/kg	58	62 mg/kg	
Cc1c(N2CCOCC2)nn2cnnc2c1C [R7 Methyl; R3 H; R8 CH3; R6 Morpholino, 6-Morpholino-7,8-dimethyl-s-triazolo[4,3-b]pyridazine]	272 mg/kg	272 mg/kg	46		TD50 ([1]; in vivo): 272 mg/kg
Cc1c(N2CCCCC2)nn2cnnc2c1C [R7 Methyl; R3 H; R8 CH3; R6 Piperidino, 6-Piperidino-7,8-dimethyl-s-triazolo[4,3-b]pyridazine]	404 mg/kg	404 mg/kg	45		TD50 ([1]; in vivo): 404 mg/kg
Cc1cc2nncn2nc1N1CCCC1 [Example 3, 7-methyl-6-pyrrolidino-s-triazolo[4,3-b]pyridazine]	176 mg/kg	272 mg/kg	43	141 mg/kg	
CN1CCN(c2nn3cnnc3c3c2C2CCC3C2)CC1 (stereo not shown) [Example 5, 7,8,9,10-tetrahydro-6-[4-methyl-1-piperazinyl)-7,10-methano(1,2,4)triazolo[3,4-a]phthalazine]	147 mg/kg	175 mg/kg	92	147 mg/kg	
c1nnc2c3c(c(N4CCCCC4)nn12)CCCC3 [Example 25, 6-piperidino-7,8-tetramethylene-s-triazolo[4,3-b]pyridazine]	298 mg/kg	298 mg/kg	72	283 mg/kg	
Cc1nnc2c3c(c(N4CCOCC4)nn12)CCCC3 [6-Morpholino-3-methyl-7,8-tetramethylene-s-triazolo[4,3-b]pyridazine]	126 mg/kg	149 mg/kg	61	90 mg/kg	selectivity ratio ([1]; in vivo): ~1.18
Cc1nnc2c3c(c(N4CCN(C)CC4)nn12)C1CCC3C1 (stereo not shown) [Example 13]	147 mg/kg	147 mg/kg	97		TD50 ([1]; in vivo): 147 mg/kg
Cc1cc2nnc(C)n2nc1N1CCCCC1 [3,7-dimethyl-6-piperidino-s-triazolo[4,3-b]pyridazine]	327 mg/kg	327 mg/kg	48	260 mg/kg	percent blockade of histamine [3]: 48%
Cc1cc2nncn2nc1N1CCN(C)CC1 [Example 4, 7-Methyl-6-N-methylpiperazino-s-triazolo[4,3-b]pyridazine]	140 mg/kg	272 mg/kg	39		TD50 ([1]; in vivo): 116 mg/kg; percent blockade of histamine [3]: 39%
Cc1nnc2c3c(c(N4CCCCC4)nn12)CCCC3 [6-Piperidino-3-methyl-7,8-tetramethylene-s-triazolo[4,3-b]pyridazine]	139 mg/kg	139 mg/kg	38	125 mg/kg	
Cc1cc2nncn2nc1N1CCOCC1 [7-Methyl-6-morpholino-s-triazolo[4,3-b]pyridazine]	280 mg/kg	327 mg/kg		45 mg/kg	bronchodilator activity ([3]; in words): desirable bronchodilator activity
Cn1c(=O)c2[nH]cnc2n(C)c1=O [Aminophylline, reference compound]					inhibition in vivo at 10 mg/kg ([3]; Cavia porcellus, iv, read-out: Histamine Blockade): 37%
